Experiment [1] has as its target T1, Cysteine protease ATG4B (Homo sapiens, UniProt Q9Y4P1).
T1 sequence (Q9Y4P1 whole entry): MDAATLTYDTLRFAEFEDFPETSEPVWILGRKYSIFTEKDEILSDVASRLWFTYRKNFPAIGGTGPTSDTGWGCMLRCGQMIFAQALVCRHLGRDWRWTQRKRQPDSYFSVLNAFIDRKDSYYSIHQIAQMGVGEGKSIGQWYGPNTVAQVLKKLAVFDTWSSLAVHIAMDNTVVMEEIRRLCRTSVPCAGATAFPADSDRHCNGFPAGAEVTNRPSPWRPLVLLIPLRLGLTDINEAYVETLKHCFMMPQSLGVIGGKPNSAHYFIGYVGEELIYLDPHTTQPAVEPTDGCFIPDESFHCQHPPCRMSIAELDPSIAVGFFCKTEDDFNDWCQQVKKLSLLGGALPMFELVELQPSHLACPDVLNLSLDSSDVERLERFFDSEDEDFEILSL
Nature of the experiment: Inhibition of ATG4B (unknown origin) using N-(His)6-LC3B(L123C)Biotin as substrate preincubated for 30 mins and measured after 1 hr by AlphaScreen method.

Experiment [2] has as its target T1, Cysteine protease ATG4B. Nature of the experiment: Inhibition of ATG4B (unknown origin) using N-(His)6-LC3B(L123C) as substrate preincubated for 1 hr followed by substrate addition and measured after 30 mins MS-based analysis.
In the next experiment the target is T2, Papain (Carica papaya) (UniProt P00784).
T2 sequence (whole entry): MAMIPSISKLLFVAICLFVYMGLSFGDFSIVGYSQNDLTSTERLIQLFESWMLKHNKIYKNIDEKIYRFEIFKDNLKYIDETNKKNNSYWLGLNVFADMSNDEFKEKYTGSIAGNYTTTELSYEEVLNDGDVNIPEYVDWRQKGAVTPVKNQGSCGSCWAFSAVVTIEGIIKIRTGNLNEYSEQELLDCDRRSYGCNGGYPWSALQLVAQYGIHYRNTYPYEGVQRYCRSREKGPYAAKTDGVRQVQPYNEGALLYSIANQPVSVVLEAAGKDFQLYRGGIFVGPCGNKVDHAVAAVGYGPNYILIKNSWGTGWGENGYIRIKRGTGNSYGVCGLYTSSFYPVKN
Put plainly: Inhibition of papaya papain at 50 uM using L-pyroglutamyl-L-phenylalanyl-L-leucine-p-nitroanilide as substrate measured after 30 mins.

Experiment [3] relates to HT-29. Nature of the experiment: Antiproliferative activity against human HT-29 cells assessed as reduction in cell viability at 75 uM in presence of oxaliplatin after 24 to 72 hrs by MTT assay. Format: functional, cell-based.
The test system of experiment [4] is HT-29. The conditions noted are these: Homo sapiens, 100 to 200 uM.
Description: Inhibition of autophagic flux in human HT-29 cells assessed as increase in LC3-2 expression at 100 to 200 uM after 16 hrs by Western blot analysis
Experiment [5] deals with HT-29. Conditions: Homo sapiens, 100 to 200 uM. The source holds these as a separate data set.
Description: Inhibition of autophagic flux in human HT-29 cells assessed as reduction in p62 degradation at 100 to 200 uM after 16 hrs by Western blot analysis
Experiment [6] addresses T1, Cysteine protease ATG4B. Nature of the experiment: Inhibition of recombinant ATG4B (unknown origin) expressed in Escherichia coli BL21(DE3) using LC3-PLA2 as substrate by fluoroscence based assay.

Calls of active or inactive are those of the source. The rule behind the calls is not given here.

For `CCCCC(O)CNc1cc2c3c(cccc3c1)NC2=O` (stereo unspecified), the half-inhibitory concentration (IC50) at Cysteine protease ATG4B [1] (read-out: IC50) came to 235 µM; against Cysteine protease ATG4B [2], 215 µM. Taken in the same sequence, the figures for `O=C1Nc2ccc(NCC(O)CCl)c3cccc1c23` (stereo unspecified) were above 300 µM and 280 µM. Taken in the same sequence, the figures for `Oc1ccc(C2=Nc3cccc4cccc(c34)N2)cc1` were 300 µM and 150 µM. For the compound `O=C(N[C@@H](Cc1ccccc1)C(=O)CCl)OCc1ccccc1`, at Papain (Carica papaya), the inhibition entry was “Active”.

Consider `CCCCC(O)CNc1cc2c3c(cccc3c1)C(=O)N2` (stereo unspecified), for which, on Papain (Carica papaya), the inhibition result was “inactive”. For the same compound, the result with HT-29 [3] was Active. Moreover, the inhibition result in the experiment on HT-29 [4] and in the experiment with HT-29 [5] was “Active” throughout. `O=C1Nc2cccc3cc(NCC(O)CCl)cc1c23` (stereo unspecified): the inhibition entry on Papain (Carica papaya) was “inactive”. Consider `O=c1oc2c(O)c(O)cc3c(=O)oc4c(O)c(O)cc1c4c23` [ELLAGIC ACID], for which the half-inhibitory concentration (IC50) at Cysteine protease ATG4B [6] is 3 µM.

Turning to `O=C1NC(=O)c2cc(NCC(O)CCl)cc3cccc1c23` (stereo unspecified), the half-maximal inhibitory concentration (IC50) result against Cysteine protease ATG4B [1] was “Not Active”.

`C=CCCC(O)CNc1cc2c3c(cccc3c1)NC2=O` (stereo unspecified): the IC50 result on Cysteine protease ATG4B [1] is on record as “Not Active”.

Consider `O=C(/C=C1/Nc2cc(Cl)c(Cl)cc2NC1=O)N/N=C/c1ccccc1O`, for which the IC50 at Cysteine protease ATG4B [1] (read-out: IC50) was found to be 315 µM.
